How the values were obtained:
[1] = tested on: retinal ganglion cell axons; assay: Protection of retinal ganglion cell axons from degeneration following optic nerve transection (Table E); assay type: in vivo, rat; conditions: 14 days after optic nerve transection; ± SEM
Description: Efficacy of representative compounds from different immunophilin ligand series in protecting retinal ganglion cell axons from degeneration following optic nerve transection is set forth in Table E.

[2] = Clearance (Table E comments); assay type: in vitro ADME
[3] = tested on: retinal ganglion cells and optic nerve axons; assay: Optic nerve transection vision loss model, 14 or 28 day treatment, sacrifice at 90 days (Example 2, Table A); assay type: in vivo, Sprague Dawley rats; conditions: for Proximal optic nerve myclin basic protein Density, % recovery: ± SEM, % areal coverage of optic nerve cross section
Description: All eyes and optic nerves stumps were removed.

[4] = tested on: retinal ganglion cells, optic nerve axons and myelin; assay: Retinal ischemia (intraocular pressure above arterial blood pressure), examined 28 days later; assay type: in vivo, adult rats
Description: Retinal ganglion cells were retrogradely labeled in adult rats by bilateral injection of fluorogold in their lateral geniculate nuclei. Labeled ganglion cells in the normal rat retina appear as white profiles against the dark background (FIG. 1A). Complete retinal ischemia was produced by infusing normal saline solution into the retinal vitreous cavity of each eye until the intraocular pressure exceeded arterial blood pressure. 28 days after the ischemic episode extensive degeneration of retinal ganglion cell was evidenced by massive reduction in the density of fluorogold labeled cells (FIG. 1B).

retinal ganglion cells = assay: Optic nerve transection, 28 days treatment, sacrifice at 90 days (Example 13); assay type: in vivo, Sprague Dawley rats; conditions: 10 mg/kg/day s.c. for 28 days, 90 days after transection
Description: Transection of the mammalian optic nerve results in a brief period of abortive regeneration, but the majority of axotomized neurons die and the axons from many persisting ganglion cells die back beyond the optic nerve head.

[5] = Morris watermaze spatial learning and memory in aged rodents (Example 15); assay type: in vivo, C57BL/6N-Nia mice; conditions: aged impaired mice, 10 mg/kg daily, retention testing after 3 weeks of dosing
Description: The Morris watermaze is widely used for assessing spatial memory formation and retention in experimental animals. The test depends on the animal's ability to utilize spatial visual information in order to locate a submerged escape platform in a water tank. It is important that the tank itself be as devoid of specific visual features as possible—thus, it is always circular in shape, the sides are kept smooth and in uniform dull colors, and the water is rendered opaque with nontoxic watercolor pigment or powdered milk. This is to ensure that the animal navigates only by the use of more distant visual cues, or by the use of intra-maze cues specifically provided by the experimenter. The animals' path, speed, and swim time are tracked with a ceiling camera for later computerized analysis. Over the course of several successive trials, spatial learning can therefore be defined as a drop of distance swum, or time elapsed, from placement in the tank until escape onto the invisible platform. The procedure involved using three-month old (young) and 18-19 month old male C57BL/6N-Nia (aged) mice which habituated to the well known and conventional Morris watermaze during a 4 trials/day, 3-4 day visible platform training phase. […] Swim Distances (cm) were analyzed in a 7×5 ANOVA including Groups and Blocks (1-5) as factors in the analysis, treating Blocks as a repeated measure.

FKBP12 = FKBP12 (Homo sapiens, UniProt P62942); assay: Ki Test Procedure: inhibition of peptidyl-prolyl isomerase (rotamase) activity, chymotrypsin-coupled assay; assay type: biochemical; conditions: Table E comments
Chain of FKBP12 (P62942 whole entry, species assumed): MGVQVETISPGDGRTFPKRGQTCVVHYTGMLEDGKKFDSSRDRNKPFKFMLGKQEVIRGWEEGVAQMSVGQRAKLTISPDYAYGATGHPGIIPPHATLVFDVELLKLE
Description: The inhibition of the prolyl peptidyl cis-trans isomerase activity of FKBP may be measured as an indicator of this affinity.
The cis-trans isomerization of an alanine-proline bond in a model substrate, N-succinyl-Ala-Ala-Pro-Phe-p-nitroanilide, is monitored spectrophotometrically in a chymotrypsin-coupled assay, which releases para-nitroanilide from the trans form of the substrate. The inhibition of this reaction caused by the addition of different concentrations of inhibitor is determined, and the data is analyzed as a change in first-order rate constant as a function of inhibitor concentration to yield the apparent Ki values.
In a plastic cuvette are added 950 mL of ice cold assay buffer (25 mM HEPES, pH 7.8, 100 mM NaCl), 10 mL of FKBP (2.5 mM in 10 mM Tris-Cl pH 7.5, 100 mM NaCl, 1 mM dithiothreitol), 25 mL of chymotrypsin (50 mg/ml in 1 mM HCl) and 10 mL of test compound at various concentrations in dimethyl sulfoxide. The reaction is initiated by the addition of 5 mL of substrate (succinyl-Ala-Phe-Pro-Phe-para-nitroanilide, 5 mg/mL in 2.35 mM LiCl in trifluoroethanol).
The absorbance at 390 nm versus time is monitored for 90 seconds using a spectrophotometer and the rate constants are determined from the absorbance versus time data files.

## O=C(SCCCc1ccccc1)[C@@H]1CCCN1C(=O)NC12CC3CC(CC(C3)C1)C2 [B]
[1]
  RT97 + RGC axon density 14 days after On transection (% ON axons rescued): 100.0% ± 5.2% SEM

## CCC(C)(C)C(=O)C(=O)N1CCCCC1C(=O)OC(CCc1ccccc1)CCc1ccccc1 (centres unmarked) [E]
[2]
  Clearance: 41.8 µL/min

## CCC(C)(C)C(=O)C(=O)N1CCC[C@H]1C(=O)OCCCc1cccnc1 [GPI 1046]
[3]; 14 days treatment, 10 mg/kg/day sc, 90 days after transection, mean density ± SEM of Fluoro-gold labeled RGC in 400 μm × 400 μm gridfields
  RGC Counts: 49 ± 5.3
[3]; 14 days treatment, cross sectional area compared to sham control
  Distal optic nerve shrinkage: 33% shrinkage
[3]; 14 days treatment, cross sectional area multiplied by myelin density
  Distal optic nerve myclin basic protein Density, loss: 47% loss
[3]; 14 days treatment
  Proximal optic nerve myclin basic protein Density, % recovery: 1.6 ± 3.0 SEM % recovery
[3]; 28 day treatment
  density of large, medium and small caliber optic nerve axons: significant increase
[3]; 28 days treatment, 90 days after transection, RT97 labeled axons in 200 μm × 200 μm region, mean ± SEM
  ON Axon density: 1526 ± 120
[3]; 28 days treatment, cross sectional area compared to sham control
  Distal optic nerve, less shrinkage: 56% less shrinkage*
[3]; 28 days treatment
  Proximal optic nerve myclin basic protein Density, % recovery: 70 ± 6.3 SEM % recovery
[4]; 10 mg/kg s.c. 1 hour prior to ischemia and 10 mg/kg/day for the next four days, 28 days after ischemia
  protection of retinal ganglion cells (fluorogold labeled) after retinal ischemia: noticeable protection of a large proportion of the vulnerable ganglion cell population
[4]; 28 days after 1 hour retinal ischemic episode
  density of degenerating myelin figures after retinal ischemia: dramatically decreased the density of degenerating myelin figures
[4]; 28 days after 1 hour retinal ischemic episode, toluidine blue staining
  protection of optic nerve axons after retinal ischemia: protected the majority of optic nerve axons from degeneration
Retinal ganglion cells
  ganglion cell population spared: 25%
Retinal ganglion cells; RT97 neurofilament
  preservation of axons in the proximal stump of the transected nerve: preserved the axons of virtually all protected neurons
[5]
  spatial memory performance (Morris watermaze retention, swim distance): significantly enhanced spatial memory performance

## C=C(C(=O)N1CCCC[C@H]1C(=O)O)C(C)(C)CC [G]
FKBP12
  Ki: > 10 µM
[1]
  RT97 + RGC axon density 14 days after On transection (% ON axons rescued): 34.0% ± 4.8% SEM

## C=C(C(=O)N1CCCC[C@H]1C(N)=O)C(C)(C)CC [H]
[1]
  RT97 + RGC axon density 14 days after On transection (% ON axons rescued): 30.3% ± 8.0% SEM

## C=C(C(=O)N1CCC[C@H]1C(=O)O)C(C)(C)CC [L]
FKBP12
  Ki: > 7.74 µM
[2]
  Clearance: 5.2 µL/min
[1]
  RT97 + RGC axon density 14 days after On transection (% ON axons rescued): 7.8% ± 3.0% SEM

## CCC(C)(C)C(=O)C(=O)N1CCC[C@H]1C(=O)SCCC(c1ccccc1)c1ccccc1 [M]
[1]
  RT97 + RGC axon density 14 days after On transection (% ON axons rescued): −6.3% ± 3.9% SEM

From US6376517B1, “Pipecolic acid derivatives for vision and memory disorders” (GPI NIL Holdings, Inc., priority 1998, dated 2002)
